According to PubChem BioAssay AID1645865 (Buhrlage Lab, Dana-Farber Cancer Institute and Novartis …, 2021):
Active and inactive are the calls of the source.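 The calls were made as follows: active = maximal inhibition of the USP30 enzyme reaching 30% or more across the dose series; inactive = the rest.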

What follows are compounds tested against Ubiquitin carboxyl-terminal hydrolase 30 (Homo sapiens) (UniProt Q70CQ3) (assay: inhibitors of ubiquitin-specific protease 30 deubiquitylating enzyme, concentration dependence, in vitro biochemical, validation of primary hits (AID 1645865)). Conditions: purified USP30, Ub-rhodamine cleavage, fluorescence, 2 h.
Sequence of Ubiquitin carboxyl-terminal hydrolase 30 (Homo sapiens) (Q70CQ3 whole entry, looked up): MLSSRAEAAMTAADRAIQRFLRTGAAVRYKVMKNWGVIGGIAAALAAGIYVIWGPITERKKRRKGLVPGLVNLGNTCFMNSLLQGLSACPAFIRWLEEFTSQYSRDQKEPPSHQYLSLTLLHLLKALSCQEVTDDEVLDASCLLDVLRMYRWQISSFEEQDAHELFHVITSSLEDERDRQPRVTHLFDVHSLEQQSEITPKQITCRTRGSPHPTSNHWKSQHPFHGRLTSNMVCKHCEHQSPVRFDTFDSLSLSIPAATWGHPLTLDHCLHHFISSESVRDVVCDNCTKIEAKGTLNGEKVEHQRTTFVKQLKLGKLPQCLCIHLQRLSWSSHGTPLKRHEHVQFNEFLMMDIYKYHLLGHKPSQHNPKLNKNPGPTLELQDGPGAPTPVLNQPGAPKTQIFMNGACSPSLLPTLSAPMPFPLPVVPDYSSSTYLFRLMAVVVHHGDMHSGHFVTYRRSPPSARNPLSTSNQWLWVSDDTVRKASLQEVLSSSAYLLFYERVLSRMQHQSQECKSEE

| Compound | IC50 |
| --- | --- |
| COc1ccc(-c2cc(C(=O)NC3CCCCCC3)[nH]n2)cc1S(=O)(=O)N(C)C | 22.9 µM |
| Cc1cc(-n2c(C)cc(-c3csc(N)n3)c2C)no1 | > 50 µM (inactive) |
| CCc1ccccc1NC(=O)c1cc(-c2ccccn2)n[nH]1 | 24 µM |
| COc1cc(Cl)ccc1C(=O)Nc1cccc(-n2cnnn2)c1C | 10.2 µM |
| O=S(c1ccc2ccccc2c1)c1cnns1 (stereo not given) | > 50 µM (inactive) |
| Cc1cc(C)nc(-n2nc(C)c3c2NC(=O)CSC3c2ccc(F)cc2F)n1 (stereo not given) | 31.3 µM |
| COCCN(C1CCN(CCc2ccc(Cl)cc2)CC1)S(=O)(=O)c1cccc2cccnc12 | > 50 µM (inactive) |
| NS(=O)(=O)c1cc(C(=O)OCC(=O)c2ccc3c(c2)OCCO3)ccc1Cl | > 50 µM (inactive) |
| Cc1cc(NC(=O)COc2ccc3oc4ccccc4c3c2)no1 | > 50 µM (inactive) |
| CCCC(=O)N1CCC2(CC1)Nc1ccccc1NC2=O | > 50 µM (inactive) |
| N#Cc1ccccc1OCc1csc(-c2ccccc2)n1 | > 50 µM (inactive) |
| Fc1ccc(CN2CCc3nc4cccnc4cc3C2)cc1 | > 50 µM (inactive) |
| O=C(Nc1ccccc1)c1nc2c(s1)CCN(C(=O)c1ccccc1)CC2 | > 50 µM (inactive) |
| Cc1cc(C)n(-c2ccc(C(=O)Nc3cccc(S(=O)(=O)N4CCCC4)c3)cc2)n1 | 9.63 µM |
| COc1cccc(N2CCN(C(=O)Nc3ccc4c(c3)NC(=O)CO4)CC2)c1 | 21.8 µM |
| N#Cc1ccccc1Cn1c(=O)n(CCCCC(=O)NCCc2ccccc2)c(=O)c2ccccc21 | 14.4 µM |
| O=C(COc1ccc2ccccc2c1)Nc1cccc2ccccc12 | 21 µM |
| Cc1c(C)n(-c2ccccc2)c2ncn(CC(=O)NC(C)c3ccccc3)c(=O)c12 (stereo not given) | 23 µM |
| CCS(=O)(=O)N1CCc2cc(C(=O)Nc3ccc4c(c3)OCCO4)ccc21 | > 50 µM (inactive) |

| Compound | IC50 |
| --- | --- |
| COc1cccc(NC(=O)c2cnc3c(c2)c(=O)n(C)c(=O)n3C)c1 | 2.05 µM |
| O=C(Cn1ccc2ccc(N3CCOCC3)nc21)NCc1ccccc1F | > 50 µM (inactive) |
| COc1ccc(OC)c(-c2c(C#N)c(C)nc3c2N2CCC3CC2)c1 | 24.1 µM |
| O=C(NCCN1CCCC1)C1CCN(c2cnc(N3CCCCC3)nc2)CC1 | > 50 µM (inactive) |
| Cc1cc(C(=O)N2CCOC3(CC=CCN(CCc4ccccc4)C3=O)C2)n2nccc2n1 (stereo not given) | > 50 µM (inactive) |
| O=C(Nc1ccc(Br)cn1)c1nc2ccccc2nc1N1CCCCC1 | > 50 µM (inactive) |
| Cc1ccc(CSC2=NS(=O)(=O)c3ccccc3N2)cc1 | > 50 µM (inactive) |
| Cc1ccc(C)c(NS(=O)(=O)c2cc(-c3cnc(C4CC4)o3)ccc2C)c1 | > 50 µM (inactive) |
| Cc1ccc(C)c(-n2c(C)cc(/C=C3/C(=N)N4C(c5ccc(F)cc5)=CSC4=NC3=O)c2C)c1 | > 50 µM (inactive) |
| COc1cccc(C(=O)Nc2ccc(-n3cnnn3)cc2)c1 | 24.6 µM |
| Fc1cccc(Cn2cc(-c3noc(-c4ccncc4)n3)nn2)c1 | 22.8 µM |
| CC1=CN2C(=N)/C(=C/c3cn(Cc4ccc(Cl)cc4)c4ccccc34)C(=O)N=C2S1 | > 50 µM (inactive) |
| COc1cccc(-n2cnc3cc(C(=O)NC4CC4)ccc3c2=O)c1 | > 50 µM (inactive) |
| Cc1cc(C)c2sc(N(CCCn3ccnc3)C(=O)Cc3ccccc3)nc2c1 | 17.5 µM |
| Cc1ccc(-c2nnc(-n3ncc(C#N)c3N)c3ccccc23)cc1C | > 50 µM (inactive) |
| CCOc1ccc(CC(=O)Nc2ccc(-c3cn4cccnc4n3)cc2)cc1 | > 50 µM (inactive) |
| Cc1ccc(C)c(S(=O)(=O)N2CCN(c3ccc4nnc(-c5ccco5)n4n3)CC2)c1 | > 50 µM (inactive) |
| Cc1ccccc1Cn1ccc2ccn(Cc3cccnc3)c2c1=O | > 50 µM (inactive) |
| O=c1cc(CNc2ccc(Br)cc2)nc2nc(-c3ccccc3)[nH]n12 | > 50 µM (inactive) |

| Compound | IC50 |
| --- | --- |
| Fc1cccc(-n2cc(-c3noc(-c4ccc[nH]4)n3)nn2)c1 | > 50 µM (inactive) |
| CCN(c1ccc(NC(=O)CSc2nnc(-c3ccccc3)n2-c2ccc(OC)c(OC)c2)cc1)C(C)C | 2.07 µM |
| COc1ccc(S(=O)(=O)N2CCc3ccccc32)cc1C(=O)Nc1ccc2[nH]c(=O)[nH]c2c1 | 2.36 µM |
| COc1cc(C(=O)Nc2ccc(-c3csc(C)n3)cc2)cc(OC)c1OC | > 50 µM (inactive) |
| O=C(Nc1ccc2c(c1)OCCO2)c1cc(CN2CCOCC2)on1 | > 50 µM (inactive) |
| COCCNC(=O)c1ccn(-c2ccc3ccc(-c4cnn(C)c4)cn23)n1 | > 50 µM (inactive) |
| COc1ccc2[nH]cc(S(=O)(=O)c3ccc(C)c(F)c3)c(=O)c2c1 | 46.4 µM |
| Cc1cc(-c2cnc(N(C)C)nc2-c2ccc(CNC(=O)Cc3ccc(F)cc3)cc2)on1 | > 50 µM (inactive) |
| O=C(NC1(O)C(=O)c2ccccc2C1=O)c1ccc(-c2csnn2)cc1 | 32.1 µM |
| CCC(=O)N1c2ccccc2NC2=C(C(=O)CC(c3ccccc3OCc3ccccc3)C2)C1c1ccccc1 (stereo not given) | 2.39 µM |
| O=C(c1ccco1)N1CCCC2(C1)Nc1cccnc1NC2=NC1CCCC1 (stereo not given) | > 50 µM (inactive) |
| O=c1ccc(-c2noc(Cc3cccc(Cl)c3)n2)c[nH]1 | > 50 µM (inactive) |
| O=C(Cc1ccc(Cl)c(Cl)c1)OCC(=O)c1c[nH]c2ccccc12 | > 50 µM (inactive) |
| COc1cc(C2SCC(=O)Nc3c2c(-c2ccccc2)nn3-c2ccccc2)cc(OC)c1OC (stereo not given) | > 50 µM (inactive) |
| C[C@@]12c3ccc4c(c3C(=O)c3occ(c31)C(O)C[C@H]2O)CCC4=O (stereo not given in full) | > 50 µM (inactive) |
| Cc1ccc(-c2nc(NC(=O)Nc3ccc(Cl)cc3)sc2C)cc1 | 5.88 µM |
| Cc1cccc(NC(=O)c2nn(C)c3ccccc3c2=O)c1 | 24.6 µM |
| CNC(=O)c1c2n(c3ncccc13)CCN(S(=O)(=O)c1ccc(-c3ccccc3)cc1)C2 | 3.95 µM |
| COc1c(O)c(O)c2c(=O)cc(-c3ccc(O)cc3)oc2c1OC | > 50 µM (inactive) |

More lines, now with the values ahead:

| IC50 | Compound |
| --- | --- |
| > 50 µM (inactive) | CC(=O)NCc1nc(-c2ccc3c(c2)nc(C)c(=O)n3C2CCCC2)no1 |
| 16.4 µM | O=C(NCCc1ccccn1)c1cc(-c2ccc(Br)cc2)n[nH]1 |
| 3.03 µM | Cc1c(Cl)cccc1NC(=O)Cn1ccc2ccccc2c1=O |
| 44.3 µM | O=C(CC1Oc2ccccc2NC1=O)Nc1ccccc1Br (stereo not given) |
| > 50 µM (inactive) | O=C(COC(=O)c1cc2c(s1)CCC2)c1ccc2[nH]c(=O)[nH]c2c1 |
| > 50 µM (inactive) | O=C(CCc1ccc(S(=O)(=O)N2CCOCC2)cc1)Nc1ccc2c(c1)OCCO2 |
| 2.9 µM | CC(=O)Nc1cc(-c2cccc(O)c2)cn2c(-c3cnn(C)c3)cnc12 |
| > 50 µM (inactive) | CN1CCN(C(=O)c2cc(-c3ccn(CC4CC4)n3)n3ccccc23)CC1 |
| 20.2 µM | CSc1ccc(CNC(=O)CC2CCN(S(=O)(=O)c3ccc(C)cc3)CC2)cc1 |
| 29.3 µM | Cc1cc(C(=O)N2CC(C(=O)Nc3cc(C(F)(F)F)ccc3Cl)C2)no1 |
| 3.36 µM | COc1ccc(C(=O)C2CC(=O)Nc3c2c(C)nn3-c2ccc(Br)cc2)cc1 (stereo not given) |
| > 50 µM (inactive) | Cc1ccccc1C(=O)OCCN1C(=O)c2cccc3c(N4CCOCC4)ccc(c23)C1=O |
| > 50 µM (inactive) | CC(=O)c1ccc(NC(=O)c2nc3ccccc3nc2N2CCOCC2)cc1 |
| 4.46 µM | O=C1CC(O)C(C2=CC(=O)c3c(O)cccc3C2=O)O1 (stereo not given) |
| > 50 µM (inactive) | O=c1ccc(-c2noc(Cc3c(F)cccc3Cl)n2)c[nH]1 |
| > 50 µM (inactive) | CCCc1nc2sc3c(NC4CCCCC4)ncnc3c2c2c1CCC2 |
| 22.8 µM | O=c1[nH]c(C2CCN(S(=O)(=O)c3ccc(S(=O)(=O)NC4CCCCC4)cc3)CC2)nc2c1nnn2Cc1c(F)cccc1Cl |
| 17.6 µM | COc1ccc(N(CC(=O)Nc2cccc(F)c2)S(=O)(=O)c2ccc(OC)c(OC)c2)cc1 |
| > 50 µM (inactive) | O=C1Nc2ccccc2C(=O)C1C(c1ccc(Cl)cc1)C1C(=O)Nc2ccccc2C1=O (stereo not given) |
| > 50 µM (inactive) | NS(=O)(=O)c1ccc(Cl)c(C(=O)OCc2csc(Nc3ccccc3)n2)c1 |
| 2.08 µM | O=C(Nc1ccc2ccccc2n1)c1ccc(Cl)cc1 |
| 2.4 µM | O=C(Cn1cc(C(=O)C(F)(F)F)c2ccccc21)N1CCc2ccccc21 |

| IC50 | Compound |
| --- | --- |
| 24.8 µM | Cc1ccc(NC(=O)c2ccn(COc3ccc(F)cc3)n2)nc1 |
| 0.143 µM | COc1cc(OC)cc(-c2nc(-c3cn(-c4cccc(F)c4)nn3)no2)c1 |
| 27.4 µM | CCOc1ccc(NC(=O)Cn2cnc(S(=O)(=O)N3CCc4ccccc43)c2)cc1 |
| 22.1 µM | COc1ccc(-c2cc(-c3ccc(F)cc3)[nH]c(=O)c2C#N)cc1 |
| > 50 µM (inactive) | O=C(Nc1cccn(Cc2c(Cl)cccc2Cl)c1=O)c1ccccc1[N+](=O)[O-] |
| > 50 µM (inactive) | CCOC(=O)c1ccc(-n2c(=O)c(C#N)cc3c(=O)n4ccccc4nc32)cc1 |
| > 50 µM (inactive) | Cc1ccc(-c2csc(-n3ncc(C(=O)N4CCN(C(=O)Nc5cccc6ccccc56)C(C)C4)c3C(C)C)n2)cc1 (stereo not given) |
| 35.5 µM | O=C(Nc1ccccc1Cl)N(Cc1cc2cc3c(cc2[nH]c1=O)OCCO3)C1CCCCC1 |
| 33.1 µM | O=C(Cn1c(NCc2ccccc2)nc2ccccc21)NCC(F)(F)F |
| > 50 µM (inactive) | CCOC(=O)c1cn(C2CC2)c2cc(N3CCNCC3)c([N+](=O)[O-])cc2c1=O |
| 35.1 µM | O=C(/C=C/c1cnc2ccccc2c1)NCc1ccccc1 |
| 4.95 µM | COc1ccc2nc(SCC(=O)Nc3ccc(NC(C)=O)cc3)c(C)cc2c1 |
| 29.2 µM | COc1cccc(CNC(=O)c2ccc(CSc3nc4ccncc4n3Cc3ccccc3F)cc2)c1 |
| 27.2 µM | O=C(Nc1oc2ccccc2c(=O)c1-c1ccc2c(c1)OCO2)C1CCCCC1 |
| 4.01 µM | O=C(Nc1ccccc1Sc1ncc(-c2ccc(Cl)cc2)cn1)c1ccco1 |
| 2.06 µM | CC(NC(=O)c1ccccc1)c1nc2ccccc2n1CC(=O)Nc1ccc2c(c1)OCO2 (stereo not given) |
| 10.2 µM | COc1ccc(CN(C(=O)c2cc(-c3ccc(C)cc3)on2)C2CCS(=O)(=O)C2)cc1 (stereo not given) |
| > 50 µM (inactive) | Cn1nc(-c2nc(-c3ccccc3)no2)c2c1CCN(C(=O)C1CC1)C2 |
| > 50 µM (inactive) | Cn1cccc1C(=O)N1CCCC2(C1)Nc1cccnc1NC2=NC1CCCC1 (stereo not given) |
| > 50 µM (inactive) | CC(=O)Nc1cc2cc(-n3cccc3)ccc2oc1=O |
| > 50 µM (inactive) | Cc1ccc2cc3c(nc2n1)CCN(Cc1ccc(F)cc1)C3 |
